Results: ChEMBL document CHEMBL6115057, “Discovery and Optimization of a Covalent AKR1C3 Inhibitor” (J Med Chem, 2025)
Where a chain is given by its changes, count along the chain named. pIC50: −log10 of the molar value. The source made the active and inactive calls. The calls are words filed in the database; no cut-off is given here.

What was measured:
[1] = biological target: T1, Aldo-keto reductase family 1 member C3 (Homo sapiens, UniProt P42330); experiment: Inhibition of AKR1C3 in human COLO 205 cells by Cell based AKR activity assay
T1 sequence (P42330 whole entry): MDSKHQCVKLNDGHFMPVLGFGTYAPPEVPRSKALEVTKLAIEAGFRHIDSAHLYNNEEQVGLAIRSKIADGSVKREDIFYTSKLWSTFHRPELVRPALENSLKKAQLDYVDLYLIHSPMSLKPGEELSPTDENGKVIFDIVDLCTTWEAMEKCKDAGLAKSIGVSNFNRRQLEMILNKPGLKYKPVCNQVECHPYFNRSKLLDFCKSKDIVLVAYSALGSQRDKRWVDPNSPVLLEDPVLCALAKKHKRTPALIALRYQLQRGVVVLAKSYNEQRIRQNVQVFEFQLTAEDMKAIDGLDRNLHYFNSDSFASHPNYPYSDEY

[2] = biological target: T2, Aldo-keto reductase family 1 member C3 (Homo sapiens) (UniProt P42330); experiment: Binding affinity to AKR1C3 in human COLO 205 cells assessed as interaction at Y24/Y55 at 100 uM measured after 4 hrs; type: cell-based
T2 sequence (whole entry): T1 sequence (P42330 whole entry)

[3] = biological target: T3, Aldo-keto reductase family 1 member C2 (Homo sapiens) (UniProt P52895); experiment: Inhibition of RJG-2121 probe labelling of AKR1C2 (unknown origin) expressed in human HEK293T cells in presence of CuAAC measured after 5 to 120 mins by Gel-Based (competitive ABPP) Chemical Proteomics Assay; type: cell-based; settings: time 5-120 min
T3 sequence (whole entry): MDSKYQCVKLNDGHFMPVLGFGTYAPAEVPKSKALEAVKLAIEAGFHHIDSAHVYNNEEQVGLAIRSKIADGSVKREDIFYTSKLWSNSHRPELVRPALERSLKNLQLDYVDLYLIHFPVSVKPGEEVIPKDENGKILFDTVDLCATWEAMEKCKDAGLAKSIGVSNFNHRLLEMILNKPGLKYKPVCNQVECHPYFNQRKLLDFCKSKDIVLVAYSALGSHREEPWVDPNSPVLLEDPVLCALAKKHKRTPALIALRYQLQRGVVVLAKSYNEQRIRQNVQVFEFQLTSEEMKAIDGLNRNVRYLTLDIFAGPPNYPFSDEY

[4] = biological target: T4, Aldo-keto reductase family 1 member C1 (Homo sapiens) (UniProt Q04828); experiment: Inhibition of RJG-2121 probe labelling of AKR1C1 (unknown origin) expressed in human HEK293T cells in presence of CuAAC measured after 5 to 120 mins by Gel-Based (competitive ABPP) Chemical Proteomics Assay; type: cell-based; settings: time 5-120 min
T4 sequence (whole entry): T3 sequence (whole entry) with V38T, H47R, V54L, S87C, M151V, H170R, L172Q

[5] = biological target: T2, Aldo-keto reductase family 1 member C3 (Homo sapiens); experiment: Inhibition of RJG-2121 probe labelling of AKR1C3 (unknown origin) expressed in human HEK293T cells in presence of CuAAC measured after 5 to 120 mins by Gel-Based (competitive ABPP) Chemical Proteomics Assay; type: cell-based; settings: time 5-120 min
HEK293T = experiment: Inhibition of RJG-2121 probe labelling of AKR1C4 (unknown origin) expressed in human HEK293T cells in presence of CuAAC measured after 5 to 120 mins by Gel-Based (competitive ABPP) Chemical Proteomics Assay; type: cell-based; settings: time 5-120 min
[6] = biological target: T2, Aldo-keto reductase family 1 member C3 (Homo sapiens); experiment: Inhibition of RJG-2121 probe labelling of AKR1C3 in human COLO 205 cells in presence of CuAAC Gel-Based (competitive ABPP) Chemical Proteomics Assay; type: cell-based
[7] = biological target: T3, Aldo-keto reductase family 1 member C2 (Homo sapiens); experiment: Binding affinity to AKR1C2 in human COLO 205 cells assessed as interaction at Y55 at 100 uM measured after 4 hrs; type: cell-based
[8] = biological target: T4, Aldo-keto reductase family 1 member C1 (Homo sapiens); experiment: Binding affinity to AKR1C1 in human COLO 205 cells assessed as interaction at Y55 at 100 uM measured after 4 hrs; type: cell-based
Homo sapiens [9] = species: Homo sapiens; experiment: Selectivity ratio, ratio of IC50 for AKR1C1 (unknown origin) to AKR1C3 (unknown origin)
[10] = biological target: T4, Aldo-keto reductase family 1 member C1 (Homo sapiens); experiment: Binding affinity to AKR1C1 in human live COLO 205 cells assessed as interaction at Y24/T126 by measuring competition ratio at 10 uM measured after 2 hrs relative to control; type: cell-based
[11] = biological target: T5, Aldo-keto reductase family 1 member C4 (Homo sapiens, UniProt P17516); experiment: Inhibition of AKR1C4 (unknown origin) in human HEK293T cells assessed as turnover of coumberone to coumberol by live cell coumberone reduction assay; type: cell-based
T5 sequence (P17516 whole entry): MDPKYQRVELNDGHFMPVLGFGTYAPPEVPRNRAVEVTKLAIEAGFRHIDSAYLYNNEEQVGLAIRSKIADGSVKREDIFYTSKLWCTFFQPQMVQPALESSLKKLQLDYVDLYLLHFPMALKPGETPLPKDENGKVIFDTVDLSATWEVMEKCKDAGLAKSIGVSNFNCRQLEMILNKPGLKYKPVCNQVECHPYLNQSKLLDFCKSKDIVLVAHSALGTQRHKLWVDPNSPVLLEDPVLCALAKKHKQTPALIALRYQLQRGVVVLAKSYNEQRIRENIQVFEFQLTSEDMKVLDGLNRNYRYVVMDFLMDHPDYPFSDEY

Homo sapiens [12] = species: Homo sapiens; experiment: Selectivity ratio, ratio of IC50 for AKR1C2 (unknown origin) to AKR1C3 (unknown origin)
Homo sapiens [13] = species: Homo sapiens; experiment: Selectivity ratio, ratio of IC50 for AKR1C4 (unknown origin) to AKR1C3 (unknown origin)
[14] = biological target: T6, Aldo-keto reductase family 1 member C1 (Homo sapiens, UniProt Q04828); experiment: Inhibition of AKR1C1 (unknown origin) in human HEK293T cells assessed as turnover of coumberone to coumberol by live cell coumberone reduction assay; type: cell-based
T6 sequence (Q04828 whole entry): T3 sequence (whole entry) with V38T, H47R, V54L, S87C, M151V, H170R, L172Q

[15] = biological target: T2, Aldo-keto reductase family 1 member C3 (Homo sapiens); experiment: Binding affinity to AKR1C3 in human live COLO 205 cells assessed as interaction at Y272 by measuring competition ratio at 10 uM measured after 2 hrs relative to control; type: cell-based
[16] = biological target: T7, Aldo-keto reductase family 1 member C2 (Homo sapiens, UniProt P52895); experiment: Inhibition of AKR1C2 (unknown origin) in human HEK293T cells assessed as turnover of coumberone to coumberol by live cell coumberone reduction assay; type: cell-based
T7 sequence (P52895 whole entry): T3 sequence (whole entry)

[17] = biological target: T2, Aldo-keto reductase family 1 member C3 (Homo sapiens); experiment: Inhibition of TMT-SuTex labelling of AKR1C3 in human live COLO 205 cells assessed as competition ratio at 10 uM measured after 2 hrs relative to control; type: cell-based
[18] = biological target: T4, Aldo-keto reductase family 1 member C1 (Homo sapiens); experiment: Inhibition of RJG-2121 probe labelling of AKR1C1 (unknown origin) expressed in human HEK293T cells in presence of CuAAC measured by Gel-Based (competitive ABPP) Chemical Proteomics Assay; type: cell-based; settings: time 5-120 min
[19] = biological target: T2, Aldo-keto reductase family 1 member C3 (Homo sapiens); experiment: Inhibition of TMT-SuTex labelling of AKR1C3 in human live COLO 205 cells assessed as blockade of probe labelling at 10 uM measured after 2 hrs relative to control; type: cell-based
[20] = biological target: T2, Aldo-keto reductase family 1 member C3 (Homo sapiens); experiment: Binding affinity to AKR1C3 in human live COLO 205 cells assessed as interaction at Y24 at 10 uM measured after 2 hrs; type: cell-based
[21] = biological target: Aldo-keto reductase family 1 member B10 (Homo sapiens) (UniProt O60218); experiment: Binding affinity to AKR1B10 in human live COLO 205 cells assessed as interaction at Y49 by measuring competition ratio at 10 uM measured after 2 hrs relative to control; type: cell-based
Sequence of Aldo-keto reductase family 1 member B10 (Homo sapiens) (O60218 whole entry, looked up): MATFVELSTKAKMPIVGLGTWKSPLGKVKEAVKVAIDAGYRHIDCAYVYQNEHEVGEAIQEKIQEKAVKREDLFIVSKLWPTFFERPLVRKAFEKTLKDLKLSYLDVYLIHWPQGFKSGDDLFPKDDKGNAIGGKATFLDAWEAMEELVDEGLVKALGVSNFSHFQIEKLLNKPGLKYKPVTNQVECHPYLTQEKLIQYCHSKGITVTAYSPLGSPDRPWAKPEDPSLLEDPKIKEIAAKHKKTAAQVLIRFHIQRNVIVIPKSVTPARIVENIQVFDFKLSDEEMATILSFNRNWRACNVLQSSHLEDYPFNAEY

Structure (SMILES) | pIC50 [1] | also measured
O=C(Nc1ccc(-c2ccccn2)cc1)c1ccc(S(=O)(=O)n2cncn2)cc1 | < 5.00 | 
NS(=O)(=O)c1ccc(-n2nc(CCCNC(=O)Nc3ccc(C(F)(F)F)cc3)cc2-c2ccccc2)cc1 | < 5.00 | 
COc1ccccc1N1CCN(C(=O)c2ccc(S(=O)(=O)n3cnc(-c4ccc(-c5ccccc5)cc4)n3)cc2)CC1 | < 5.00 | 
C#CCN(C)C(=O)c1ccc(S(=O)(=O)n2cnc(C3CC3)n2)cc1 |  | Activity [2]: Active
COc1ccccc1N1CCN(C(=O)c2cccc(S(=O)(=O)n3cnc(C4CC4)n3)c2)CC1 | 5.04 | 
COc1ccccc1N1CCN(C(=O)c2cccc(S(=O)(=O)n3cncn3)c2)CC1 | < 5.00 | inhibition [3]: inactive; inhibition [4]: inactive; inhibition [5]: inactive; inhibition (HEK293T): inactive; Activity [6]: inactive
C#CCN(C)C(=O)c1cccc(S(=O)(=O)n2cnc(C3CC3)n2)c1 |  | Activity [7]: Active; Activity [8]: Active
C#CCNC(=O)c1ccc(S(=O)(=O)n2cnc(C3CCCCC3)n2)cc1 |  | Activity [2]: Active
O=C(Nc1ccc(-c2ccccc2OC(F)(F)F)cc1)c1ccc(S(=O)(=O)n2cncn2)cc1 | < 5.00 | 
COc1ccccc1N1CCN(C(=O)c2cccc(S(=O)(=O)n3cnc(C4CCCCC4)n3)c2)CC1 | < 5.00 | 
C#CCNC(=O)c1cccc(S(=O)(=O)n2cncn2)c1 |  | Activity [2]: Active
C#CCNC(=O)c1ccc(S(=O)(=O)n2cnc(C3CC3)n2)cc1 |  | Activity [2]: Active
C#CCN(C)C(=O)c1ccc(S(=O)(=O)n2cncn2)cc1 |  | Activity [7]: Active; Activity [8]: Active
COc1ccccc1N1CCN(C(=O)c2cccc(S(=O)(=O)n3cnc(-c4cccnc4)n3)c2)CC1 | < 5.00 | 
COc1ccccc1-c1ccc(NC(=O)c2ccc(S(=O)(=O)n3cncn3)cc2)cc1 | 5.06 | 

The next lines start with results.

pIC50 [1] | Structure (SMILES) | also measured
7.21 | COc1ccccc1N1CCN(C(=O)c2ccc(S(=O)(=O)n3cnc(C4CCC4)n3)cc2)CC1 | 
6.01 | COc1ccccc1N1CCN(C(=O)c2ccc(S(=O)(=O)n3cnc(-c4ccc(Br)cc4)n3)cc2)CC1 | 
7.06 | COc1ccccc1N1CCN(C(=O)c2ccc(S(=O)(=O)n3cnc(C4CC4)n3)cc2)CC1 | 
6.48 | O=C(c1ccc(S(=O)(=O)n2cncn2)cc1)N1CCN(c2ccc(I)cc2)CC1 | 
5.38 | COc1ccccc1N1CCN(C(=O)c2ccc(S(=O)(=O)n3cnc(-c4ccncc4)n3)cc2)CC1 | 
5.33 | COc1ccccc1N1CCN(C(=O)c2ccc(S(=O)(=O)n3cnc(-c4ccccc4F)n3)cc2)CC1 | 
6.30 | COc1ccc(-c2ncn(S(=O)(=O)c3ccc(C(=O)N4CCN(c5ccccc5OC)CC4)cc3)n2)cc1 | 
5.15 | COc1ccccc1N1CCN(C(=O)c2ccc(S(=O)(=O)n3cnc(-c4cccnc4)n3)cc2)CC1 | 
5.62 | COc1ccccc1N1CCN(C(=O)c2ccc(S(=O)(=O)n3cncn3)cc2)CC1 | 
5.30 | COc1ccccc1N1CCN(C(=O)c2ccc(S(=O)(=O)n3cnc(-c4ccco4)n3)cc2)CC1 | 
6.21 | COc1ccccc1N1CCN(C(=O)c2ccc(S(=O)(=O)n3cnc(-c4cccc(F)c4)n3)cc2)CC1 | 
5.33 | COc1ccccc1NC1CCN(C(=O)c2ccc(S(=O)(=O)n3cncn3)cc2)CC1 | 
6.03 | COc1ccccc1N1CCN(C(=O)c2ccc(S(=O)(=O)n3cnc(-c4ccc(C(F)(F)F)cc4)n3)cc2)CC1 | 
5.57 | COc1ccccc1N1CCN(C(=O)c2ccc(S(=O)(=O)n3cnc(-c4ccccc4)n3)cc2)CC1 | 
5.96 | COc1ccccc1N1CCN(C(=O)c2ccc(S(=O)(=O)n3cnc(-c4ccc(OC(F)(F)F)cc4)n3)cc2)CC1 | 
6.29 | COc1ccccc1N1CCN(C(=O)c2ccc(S(=O)(=O)n3cnc(-c4ccc(F)cc4)n3)cc2)CC1 | 
6.02 | COc1ccc(N2CCN(C(=O)c3ccc(S(=O)(=O)n4cncn4)cc3)CC2)cc1 | 
5.59 | O=C(c1ccc(S(=O)(=O)n2cncn2)cc1)N1CCN(c2ccccn2)CC1 | 
7.39 | COc1ccccc1N1CCN(C(=O)c2ccc(S(=O)(=O)n3cnc(C4CCCC4)n3)cc2)CC1 | 
7.57 | COc1ccccc1N1CCN(C(=O)c2ccc(S(=O)(=O)n3cnc(C4CCCCC4)n3)cc2)CC1 | Ratio IC50 (Homo sapiens [9]): 2380; Ratio [10]: 1; pIC50 [11]: 5.22; Ratio IC50 (Homo sapiens [12]): 1770; Ratio IC50 (Homo sapiens [13]): 461; pIC50 [14]: 4.51; inhibition [6]: Dose-dependent-effect; Ratio [15]: 1; pIC50 [16]: 4.64; Ratio [17]: 0.25; inhibition [18]: Time-dependent-effect; inhibition [19]: > 75%; Activity [20]: Active; Ratio [21]: 1
6.27 | COc1cccc(N2CCN(C(=O)c3ccc(S(=O)(=O)n4cncn4)cc3)CC2)c1 | 
